Reference: US20220096609A1 (priority 2019, published 2022)
Entries after “also recorded” stand apart in the source; their conditions may differ.

What was measured:
[1] = tested on: mouse phrenic nerve hemi-diaphragm; set-up: species or system CD-1 mice
[2] = tested on: mouse phrenic nerve hemidiaphragm; set-up: species or system CD-1 mice

With Nc1ccncc1N [DAP, 3,4-diaminopyridine] the “higher concentration of toxin required to induce an equivalent reduction in time for 90% paralysis as caused by DAP” value [1] was 6 times, the “muscle denervation compared with BoNT/E alone” value [1] was “faster muscle denervation” and the “muscle tension response / neurotransmission” value [1] was “elevated muscle tension response; also recorded: enhanced neurotransmission”. The onset of neuroparalysis [1] was “faster onset of neuroparalysis”, the “reduction of the therapeutically effective amount of BoNT/E compared with BoNT/E administered alone” value [1] was 25-600% and the “time taken for 50% paralysis (TTP50)” value [1] was “faster time”. The “time taken for 90% paralysis (TTP90)” value [1] was “faster time” and the “uptake of BoNT/E” value [1] was “increased uptake”.

With Nc1ccncc1 [4-AP, 4-aminopyridine] the “faster BoNT/A onset (time required for 50% paralysis)” value [2] was “approximately 25%”, the “increase of (initial) amplitude of muscle tension” value [2] was “approximately 2.5 fold” and the “onset of paralysis compared with 30 pM BoNT/A in the absence of 4-AP” value [2] was “progressed faster; also recorded: increased the onset of paralysis”.
